Reference: ChEMBL document CHEMBL1131768, “Orally bioavailable nonpeptide vitronectin receptor antagonists containing 2-aminopyridine arginine mimetics” (Bioorg Med Chem Lett, 1999)

Tests used:
in vivo [1] = settings: rat, iv
in vivo [2] = settings: dog, iv
in vivo [3] = settings: dog, po
in vivo [4] = settings: rat, po
in vivo [5] = settings: rat, iv; remark: listed apart in the source
in vivo [6] = settings: dog, iv; remark: listed apart in the source

CN1Cc2cc(C(=O)NCc3cccc(N)n3)ccc2N[C@@H](CC(=O)O)C1=O
clearance (in vivo [1]): 63 mL/min/kg | clearance (in vivo [2]): 7.8 mL/min/kg | bioavailability (in vivo [3]): 10% | bioavailability (in vivo [4]): 13% | half-life (in vivo [5]): 45 min | half-life (in vivo [6]): 47 min
